From patent US20240190872A1, “FABI INHIBITORS FOR GRAM-NEGATIVE PATHOGENS” (THE BOARD OF TRUSTEES OF THE UNIVERSITY OF ILLINOIS, priority 2021, published 2024)
Converted amounts (≈) assume the structure as drawn.

Key:
[1] = system: H. sapiens A549; test: In-vitro cytotoxicity; assay type: cell-based
[2] = Plasma protein binding; conditions: human, plasma
[3] = biological target: E. coli FabI (Escherichia coli (strain K12), UniProt P0AEK4); test: In vitro FabI inhibition assay; assay type: biochemical
Protocol: (§1) Mode of Action. To probe the effects of varying ring systems and amine placement on FabI target engagement, the apparent inhibition constants (Ki^app) for select compounds were determined using purified FabI. The goal of these studies was two-fold, to comparatively assess fabimycin, Debio-1452-NH3, and Debio-1452, and to also assess differential activity against the E. coli and A. baumannii versions of FabI. FabI from E. coli and A. baumannii were recombinantly expressed and purified, and the ability for each compound to inhibit the activity of these enzymes was evaluated using a standard FabI enzyme assay.
In vitro FabI inhibition assay. NADH (Sigma-Aldrich, Cat# N8129) and crotonoyl-CoA (Sigma-Aldrich, Cat# 28007) were both diluted into activity buffer [100 mM potassium glutamate (pH 7.8)], and working solution was dispensed into two columns of round-bottom 96-well plate (330 μL per well). […] Plate was placed in plate-reader (SpectraMax 190, Molecular Devices) under temperature control (25° C.), and temperature was allowed to equilibrate. […] After shaking for 5 s, reaction progress was monitored by absorbance at 340 nm every 15 s for 90 min. Linear portion of reaction progress curve was fit using plate-reader software (SoftMax Pro 7.0). Percent activity was calculated relative to DMSO-only and no-enzyme controls in each plate. […]

[4] = biological target: HERG (Homo sapiens (Human), UniProt Q12809); test: cell-based
[5] = system: H. sapiens HFF-1; test: In-vitro cytotoxicity; assay type: cell-based
[6] = biological target: A. baumannii FabI (Acinetobacter baumannii, UniProt D0CAD5); test: biochemical
Protocol: as §1
In vitro FabI inhibition assay. NADH (Sigma-Aldrich, Cat# N8129) and crotonoyl-CoA (Sigma-Aldrich, Cat# 28007) were both diluted into activity buffer [100 mM potassium glutamate (pH 7.8)], and working solution was dispensed into two columns of round-bottom 96-well plate (330 μL per well). Inhibitors, dissolved in DMSO at 200× final concentration, were added to each well via multichannel pipette (2.48 μL per well). After thorough mixing, this mixture was transferred to UV-transparent plate (UV-STAR half-area 96-well plate, Greiner Bio-One, Cat#675801, 100 μL per well, three technical replicates per inhibitor concentration). Plate was placed in plate-reader (SpectraMax 190, Molecular Devices) under temperature control (25° C.), and temperature was allowed to equilibrate. Fresh aliquot of enzyme from −80° C. was thawed on ice and diluted in activity buffer. Enzyme working solution was added to plate (50 μL per well, 20 nM enzyme final). After shaking for 5 s, reaction progress was monitored by absorbance at 340 nm every 15 s for 90 min. Linear portion of reaction progress curve was fit using plate-reader software (SoftMax Pro 7.0). Percent activity was calculated relative to DMSO-only and no-enzyme controls in each plate. Percent activity curves were fit to Morrison's quadratic using Graphpad Prism 6.0 to obtain apparent Ki.

[7] = Plasma protein binding; conditions: mouse, plasma
[8] = system: E. coli ΔtolC (JW5503); assay type: cell-based; conditions: efflux deficient E. coli ΔtolC
Protocol: (§2) The compounds synthesized, shown in Table 1, were evaluated against Gram-positive and Gram-negative reference strains (S. aureus 29213 and E. coli MG1655, respectively), as well as an efflux deficient E. coli strain (ΔtolC, JW5503).
(§3) Bacterial strains. S. aureus ATCC 29213, E. coli MG1655, E. coli BAA-2340, E. coli BAA-2469, E. coli BAA-2471, E. cloacae BAA-2341, E. cloacae BAA-2468, K. pneumoniae BAA-1705, K. pneumoniae BAA-2342, K. pneumoniae BAA-2470, K. pneumoniae BAA-2472, and K. pneumoniae BAA-2473 were obtained from ATCC. E. coli JW5503 and E. coli JW3596 were obtained from the KEIO Collection. E. cloacae ATCC 29893 was provided by W. van der Donk (UIUC). E. coli AR-0346, E. coli AR-0349, E. coli AR-0493, E. coli AR-0495, and K. pneumoniae AR-0347 were obtained from the CDC and FDA AR Isolate Bank. E. coli F20987, E. coli M66623, E. cloacae S28901.1, K. pneumoniae M14723, K. pneumoniae M67198, K. pneumoniae M67297, K. pneumoniae S20595, K. pneumoniae S47889, A. baumannii W41979, A. baumannii F19521, A. baumannii M13100, and A. baumannii WO22 were obtained from the University of Illinois Chicago Medical School. A. baumannii KB304, A. baumannii KB343, and A. baumannii KB357 were provided by J. Quale.
(§4) Antimicrobial susceptibility tests. Susceptibility testing was performed in biological triplicate, using the micro-dilution broth method as outlined by the Clinical and Laboratory Standards Institute. Bacteria were cultured with cation-adjusted Muller-Hinton broth (Sigma-Aldrich, Cat# 90922) in round-bottom 96-well plates (Corning, Cat# 3788). Human serum (pooled gender, 0.2 μm filtered) was purchased from BioIVT (Hicksville, NY).

[9] = system: two E. coli, four K. pneumoneia, and four A. baumannii strains; test: MIC against Gram-negative clinical isolate challenge panel (ten isolates); assay type: cell-based
Protocol: as §2, §4

[10] = system: E. coli AR 0048; test: microbe, parasite or virus in culture; assay type: cell-based
Protocol: as §4

[11] = system: K. pneumoniae AR 0066; test: microbe, parasite or virus in culture; assay type: cell-based
Protocol: as §4

[12] = system: A. baumannii AR 0299; test: microbe, parasite or virus in culture; assay type: cell-based
Protocol: as §4

[13] = system: A. baumannii AR 0033; test: microbe, parasite or virus in culture; assay type: cell-based
Protocol: as §4

[14] = system: A. baumannii AR 0313; test: microbe, parasite or virus in culture; assay type: cell-based
Protocol: as §4

[15] = system: K. pneumoniae AR 0113; test: microbe, parasite or virus in culture; assay type: cell-based
Protocol: as §4

[16] = system: A. baumannii AR 0273; test: microbe, parasite or virus in culture; assay type: cell-based
Protocol: as §4

[17] = system: E. coli AR 0085; test: microbe, parasite or virus in culture; assay type: cell-based
Protocol: as §4

[18] = system: K. pneumoniae AR 0560; test: microbe, parasite or virus in culture; assay type: cell-based
Protocol: as §4

[19] = system: E. coli MG1655; test: Antimicrobial susceptibility test (MIC); assay type: cell-based
Text: as §3, §4

[20] = system: S. aureus ATCC 29213; test: Antimicrobial susceptibility test (MIC), micro-dilution broth; assay type: cell-based; conditions: S. aureus ATCC 29213
Text: as §3, §4

[21] = system: K. pneumoniae BAA 2472; test: microbe, parasite or virus in culture; assay type: cell-based
Protocol: as §2, §3, §4

[22] = system: IMR90; test: Toxicity screen against mammalian cell lines (72 h), Alamar Blue; assay type: cell-based
Protocol: Cell culture. IMR90 cells were obtained from ATCC. IMR90 cells were grown in EMEM with 10% fetal bovine serum (Gemini Benchmark, Cat# 100-106), 100 U/mL penicillin, and 100 μg/mL streptomycin. All cells were cultured at 37° C. in a 5% CO2 environment. Media was prepared by the Univeristy of Illinois School of Chemical Sciences Cell Media Facility. Sex and age of cell lines: IMR90 ([…]).
Cell viability. Cells seeded (IMR90: 5,000 cells/well) a 96-well plate (Greiner Bio-One, Cat# 655180) and were allowed to attach overnight. […] Raptinal (100 μM) was used as a dead control. After 24 h post-treatment, media was exchanged with compound-free media. […] Stock Alamar Blue solution [10 μL, 440 μM resazurin (Sigma-Aldrich, Cat# R7017) in sterile 1×PBS] was added to each well, and plate was incubated […]. Conversion of Alamar Blue was measured with plate reader (SpectraMax M3, Molecular Devices) by fluorescence (ex 555 nm, em 585 nm, cutoff 570 nm, autogain). Percent death was determined by normalizing to DMSO-treated cells and raptinal-treated cells.

[23] = system: Hep G2; test: Toxicity screen against mammalian cell lines (72 h); assay type: cell-based
[24] = Maximal tolerated dose (MTD) in mice
Protocol: Mouse MTD of Debio-1452-NH3. The protocol was approved by the IACUC at the University of Illinois at Urbana-Champaign (Protocol Number:16144). In these studies, 10- to 12-week-old female C57BL/6 mice purchased from Charles River were used. The maximum tolerate dose (MTD) of single compound was determined first. Debio-1452 amine analogues were formulated in 20% sulfobutyl ether β-cyclodextrin in sterile water. Debio-1452-NH3 (1), and compounds 2 and 3 were given by IP injection and mice were monitored for signs of toxicity for 2 weeks (single dose). For multiple dose, the compound was given by daily IP for 5 consecutive days and mice were monitored for signs of toxicity for 1 month. MTD was the highest dosage with acceptable toxicity (e.g. <20% weight loss). Single dose MTDs were initially determined. […] The MTD of Debio-1452-NH3 (1) was used to inform the dosing schedule used in subsequent efficacy studies.

[25] = female, C57BL/6, mouse, in vivo

Chain of A. baumannii FabI (D0CAD5 1-288): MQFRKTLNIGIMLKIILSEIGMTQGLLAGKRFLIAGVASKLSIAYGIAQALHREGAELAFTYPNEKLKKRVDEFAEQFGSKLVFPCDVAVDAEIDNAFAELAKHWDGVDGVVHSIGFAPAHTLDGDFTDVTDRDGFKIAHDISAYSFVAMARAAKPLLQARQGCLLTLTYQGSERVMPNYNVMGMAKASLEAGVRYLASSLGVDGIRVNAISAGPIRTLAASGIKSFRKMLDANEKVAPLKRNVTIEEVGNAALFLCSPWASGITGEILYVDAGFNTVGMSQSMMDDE
Chain of E. coli FabI (P0AEK4 whole entry): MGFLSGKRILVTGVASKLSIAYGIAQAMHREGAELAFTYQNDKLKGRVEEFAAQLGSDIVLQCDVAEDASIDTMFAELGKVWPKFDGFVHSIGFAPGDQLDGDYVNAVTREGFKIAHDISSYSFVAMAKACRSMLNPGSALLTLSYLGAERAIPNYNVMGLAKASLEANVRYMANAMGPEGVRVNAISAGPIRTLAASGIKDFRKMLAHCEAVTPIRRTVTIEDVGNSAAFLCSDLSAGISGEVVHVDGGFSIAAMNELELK
Chain of HERG (Q12809 whole entry): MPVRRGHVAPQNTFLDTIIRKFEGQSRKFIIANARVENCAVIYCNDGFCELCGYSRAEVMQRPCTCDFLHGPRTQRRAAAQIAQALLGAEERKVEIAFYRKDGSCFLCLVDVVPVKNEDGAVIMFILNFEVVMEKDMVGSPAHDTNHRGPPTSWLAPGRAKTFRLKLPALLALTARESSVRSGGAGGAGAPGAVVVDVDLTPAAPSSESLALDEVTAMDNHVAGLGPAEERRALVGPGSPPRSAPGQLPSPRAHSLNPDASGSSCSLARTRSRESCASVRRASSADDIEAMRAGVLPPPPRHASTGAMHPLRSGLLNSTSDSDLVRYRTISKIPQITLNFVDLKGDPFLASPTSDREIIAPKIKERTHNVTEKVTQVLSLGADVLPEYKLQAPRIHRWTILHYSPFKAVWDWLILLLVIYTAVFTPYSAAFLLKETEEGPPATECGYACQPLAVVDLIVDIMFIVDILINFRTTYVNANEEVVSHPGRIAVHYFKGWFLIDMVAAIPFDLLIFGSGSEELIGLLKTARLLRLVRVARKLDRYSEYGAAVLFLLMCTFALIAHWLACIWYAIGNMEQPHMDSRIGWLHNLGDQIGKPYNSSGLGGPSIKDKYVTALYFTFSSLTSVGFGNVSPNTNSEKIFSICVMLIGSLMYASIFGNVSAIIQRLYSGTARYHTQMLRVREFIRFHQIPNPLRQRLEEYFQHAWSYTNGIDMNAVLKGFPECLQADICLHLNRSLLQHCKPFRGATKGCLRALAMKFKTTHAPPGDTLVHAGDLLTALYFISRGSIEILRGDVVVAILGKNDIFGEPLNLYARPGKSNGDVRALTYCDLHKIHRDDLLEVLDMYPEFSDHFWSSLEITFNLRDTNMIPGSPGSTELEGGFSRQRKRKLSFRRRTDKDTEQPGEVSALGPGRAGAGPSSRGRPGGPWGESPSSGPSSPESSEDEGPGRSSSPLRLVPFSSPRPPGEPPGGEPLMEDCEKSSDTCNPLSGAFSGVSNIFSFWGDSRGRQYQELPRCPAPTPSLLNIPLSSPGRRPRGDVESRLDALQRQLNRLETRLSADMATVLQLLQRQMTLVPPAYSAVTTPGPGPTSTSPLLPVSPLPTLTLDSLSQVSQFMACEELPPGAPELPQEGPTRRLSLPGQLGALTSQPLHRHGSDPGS

Compound: Cc1c(CN(C)C(=O)/C=C/c2cnc3c(c2)CC(N)C(=O)N3)oc2ccccc12 (racemic) [Debio-1452-NH3, (E)-3-(6-amino-7-oxo-5,6,7,8-tetrahydro-1,8-naphthyridin-3-yl)-N-methyl-N-((3-methylbenzofuran-2-yl)methyl)acrylamide]
- inhibition at 30 µM [1]: 29 ± 4%
- IC50 ([1]; cytotoxicity): 68 ± 4 µM
- fraction unbound [2]: 0.107
- Ki [3]: 0.0035 ± 0.0005 µM
- IC50 [4]: 5.7 µM
- inhibition at 30 µM [5]: 11 ± 2%
- IC50 ([5]; cytotoxicity): 63 ± 33 µM
- Ki [6]: 0.114 µM
- fraction unbound [7]: 0.055

Compound: Cc1c(CN(C)C(=O)/C=C/c2cnc3c(c2)CCC(N)C(=O)N3)oc2ccccc12 (racemic) [(±)-11]
- MIC E. coli ΔtolC [8]: 0.031 µg/mL (≈ 0.0766 µM)
- concentration at which all strains of the clinical isolate challenge panel are inhibited [9]: ≤ 8 µg/mL
- MIC E. coli AR 0048 ([10]; clinical isolate): 4 µg/mL (≈ 9.89 µM)
- MIC K. pneumoniae AR 0066 ([11]; clinical isolate): 8 µg/mL (≈ 19.8 µM)
- MIC A. baumannii AR 0299 ([12]; clinical isolate): 4 µg/mL (≈ 9.89 µM)
- MIC A. baumannii AR 0033 ([13]; clinical isolate): 4 µg/mL (≈ 9.89 µM)
- MIC A. baumannii AR 0313 ([14]; clinical isolate): 8 µg/mL (≈ 19.8 µM)
- MIC K. pneumoniae AR 0113 ([15]; clinical isolate): 8 µg/mL (≈ 19.8 µM)
- MIC A. baumannii AR 0273 ([16]; clinical isolate): 8 µg/mL (≈ 19.8 µM)
- MIC E. coli AR 0085 ([17]; clinical isolate): 4 µg/mL (≈ 9.89 µM)
- MIC K. pneumoniae AR 0560 ([18]; clinical isolate): 8 µg/mL (≈ 19.8 µM)
- MIC E. coli MG1655 ([19]; E. coli MG1655): 4 µg/mL (≈ 9.89 µM)
- MIC S. aureus 29213 [20]: 0.016 µg/mL (≈ 0.0396 µM)
- MIC K. pneumoniae BAA 2472 ([21]; clinical isolate): 8 µg/mL (≈ 19.8 µM)

Compound: Cc1c(CN(C)C(=O)/C=C/c2cnc3c(c2)CC(N)C(=O)N3)oc2ccccc12.Cl (stereo not drawn) [Debio-1452-NH3, (E)-3-(6-amino-7-oxo-5,6,7,8-tetrahydro-1,8-naphthyridin-3-yl)-N-methyl-N-((3-methylbenzofuran-2-yl)methyl)acrylamide, reference compound]
- MIC E. coli ΔtolC [8]: 0.062 µg/mL
- IMR90 % Cell Death ([22]; 30 μM): 18 ± 4%
- IMR90 % Cell Death ([22]; 100 μM): 69 ± 5%
- Hep G2 % Cell Death ([23]; 30 μM): 29 ± 8%
- Hep G2 % Cell Death ([23]; 100 μM): 77 ± 3%
- MIC ([10]; Escherichia coli, AR0048, read-out: MIC E. coli AR 0048, clinical isolate): 32 µg/mL
- MIC ([11]; Klebsiella pneumoniae, AR0066, read-out: MIC K. pneumoniae AR 0066, clinical isolate): 32 µg/mL
- MIC ([12]; Acinetobacter baumannii, AR0299, read-out: MIC A. baumannii AR 0299, clinical isolate): 32 µg/mL
- MIC ([13]; Acinetobacter baumannii, AR0033, read-out: MIC A. baumannii AR 0033, clinical isolate): 32 µg/mL
- MIC ([14]; Acinetobacter baumannii, AR0313, read-out: MIC A. baumannii AR 0313, clinical isolate): 32 µg/mL
- MIC ([15]; Klebsiella pneumoniae, AR0113, read-out: MIC K. pneumoniae AR 0113, clinical isolate): 32 µg/mL
- MIC ([16]; Acinetobacter baumannii, AR0273, read-out: MIC A. baumannii AR 0273, clinical isolate): 32 µg/mL
- MIC ([17]; Escherichia coli, AR0085, read-out: MIC E. coli AR 0085, clinical isolate): 16 µg/mL
- MIC ([18]; Klebsiella pneumoniae, AR0560, read-out: MIC K. pneumoniae AR 0560, clinical isolate): 32 µg/mL
- well tolerated daily dosing for 5 consecutive days ([24]; daily IP, 5 consecutive days, female C57BL/6 mice): 50 mg/kg
- MTD at 2 weeks [24, 25]: 50 mg/kg
- MTD at 5 d [24, 25]: 50 mg/kg
- Multi-day single-dose MTD ([24]; female, C57BL/6, mouse, in vivo, 5 d): 50 mg/kg, 5 d
- MTD at 2 weeks ([24]; female, C57BL/6, mouse, in vivo, ip): 50 mg/kg
- MIC ([19]; Escherichia coli, MG1655): 4 µg/mL
- MIC ([20]; Staphylococcus aureus, ATCC29213, read-out: MIC S. aureus 29213): 0.031 µg/mL
- MIC ([21]; Klebsiella pneumoniae, BAA2472, read-out: MIC K. pneumoniae BAA 2472, clinical isolate): 16 µg/mL
